SMILES strings stand for the structures.

Assay [1] relates to YB5 cells. Briefly: qPCR gene expression in YB5 cells. Format: cell-based, human. Conditions: 24 hr treatment. The method, then:
Total RNA was extracted using TRIzol reagent (Invitrogen) following the manufacturer's protocol and RNA concentrations were measured using Nanodrop. cDNAs were synthesized using High Capacity cDNA Reverse Transcription Kit (ThermoFisher) and qPCR was performed using either ready-made TaqMan® assays or SYBR-green using custom-designed primers. All the data were analyzed using Applied Biosystems software (StepOne™ Software V2.3). For all experiments, relative expression levels of the target genes were determined by calculating the 2^−ΔΔCt values. All experiments were performed at least in triplicates. Either GAPDH or 18S rRNA was used as an internal normalization control for protein coding genes. RPLPO was used as an internal normalization control for ERVs. All SYBR-green primers were described previously and are listed in Table 1 along with TaqMan® probes used.
On the technique in general: Quantitative PCR measures a nucleic acid by following its amplification.

The test system of assay [2] is YB5 cells. As to the kind of experiment: GFP reactivation in YB5 cells (flow cytometry). Format: cell-based, human. As to conditions: for Emax at 1 µM / Emax at 5 µM / Emax at 10 µM / Emax at 25 µM: Homo sapiens, 24 h; for Emax at 1 µM: read-out: relative activity to Depsipeptide @ 1 μM %; for Emax at 5 µM: read-out: relative activity to Depsipeptide @ 5 μM %; for Emax at 10 µM: read-out: relative activity to Depsipeptide @ 10 μM %; for Emax at 25 µM: read-out: relative activity to Depsipeptide @ 25 μM %. The text has this: To screen the compounds of the invention for epigenetic anti-cancer activity the YB5 cell-based system, which is derived from the human colon cancer cell line SW48, was used (Si et al., 2010, Cancer Res. 70:6968-6977; Raynal et al., 2012, Cancer Res. 72:1170-1181). YB5 cells contain a single insertion of cytomegalovirus (CMV) promoter driving green fluorescent protein (GFP) gene. GFP expression is silenced in >99.9% of YB5 cells by epigenetic mechanisms. In YB5 cells, the inserted GFP gene behaves similarly to endogenous tumor suppressor genes (TSGs) silenced by epigenetic mechanisms, and it can be reactivated by epigenetic anti-cancer agents such as DNA methylation inhibitors and/or HDAC inhibitors such as depsipeptide (Si et al., 2010, Cancer Res. 70:6968-6977; Raynal et al., 2012, Cancer Research, 72:1170-1181; Wu et al., 2008, Mol. Cell Biol, 28:3219-3235). Thus, reactivation of GFP expression and the resulting fluorescence is a measure of epigenetic anti-cancer activity.
The following procedure may be used to identify compounds of useful in the invention. YB5 cells cultured in L-15 medium supplemented with 10% fetal bovine serum and 1% P/S are treated for 24 hours with varying concentrations (50 nM, 100 nM, 500 nM, 1 μM, 5 μM, 10 μM, 25 μM, and 50 μM) of test compounds. After treatment, cells are trypsinized and re-suspended in cell culture media with propidium iodide (PI) to stain dead cells. Reactivation of GFP is measured using flow cytometry to identify the GFP positive population. The relative activities are expressed as the percent of the response compared to treatment with 20 nM HDACi depsipeptide for 24 hours. YB5 cells are grown in 1% CO2 atmosphere at 37° C.
NDL-3040 compound library consists of 3040 chemically diverse compounds that are semi-natural, derived from natural compounds, or synthetic compounds that are natural-compound-like. The small molecules were arrayed in 96-well plates as 10 mM stocks in 100% DMSO and were purchased from TimTec Inc. An aminothiazole analog library (93 small molecules) was also purchased from the same vendor and was in a 96-well plate format as 10 mM stocks in 100% DMSO. The 3040 compounds were screened at 25 μM for 24 hr. All plates were kept at −80° C. before use. YB5 cells growing in log phase (70-80% confluency) in 96-well plates were used. Each experimental 96-well plate contained 80 different compounds. Compounds were dispensed using an INTEGRA VIAFLO96 96-well pipette. After a 24 hr drug treatment, cells were trypsinized for 10 mins and re-suspended in L-15 medium containing propidium iodide (PI) to stain for dead cells. A total of 10000 cells per well were analyzed using Millipore Guava flow cytometer (EMD, Millipore). GFP positive percentage was calculated by excluding all the PI positive cells. After finishing the screening, the average Z-factor
For drug screening and dose response validations, GFP positive cells were detected by Millipore Guava flow cytometer (EMD, Millipore). Cell cycle analysis was performed using BD FACSCalibur™ by propidium iodide staining four days after drug treatment. Sub-G1 population percentage was also included to measure apoptotic cell proportion. Data were analyzed using FlowJo software version 10.2. For the cell differentiation analysis, cells were washed and stained with propidium iodide (PI), CD11 b (BD Biosciences, #562793) and the isotype control IgG (BD Biosciences, #555748). Flow cytometry analysis was performed on a Millipore Guava flow cytometer (EMD, Millipore). For the ID8 in vivo experiments, ascites was drained from 5-10 mice per group and incubated in ACK buffer (Thermo Fisher) to lyse red blood cells for 10 minutes, then washed. Ascites from each mouse was individually lysed and prepared for flow cytometry. Mononuclear cells collected were cultured for 4 hours in RPMI with 5% Fetal Bovine Serum and in the presence of Cell Stimulation Cocktail (plus protein transport inhibitors; eBioscience). […]
In general terms: A flow cytometer gives signals particle by particle.

The test system of assay [3] is YB5 cells. As to the kind of experiment: GFP reactivation in YB5 cells (flow cytometry). Format: cell-based, human. As to conditions: for GFP reactivation activity: multiple doses, four-day drug treatment in YB5.
Assay [4] has as its system YB5 cells. Briefly: RNA-seq in YB5 cells. The format is cell-based, human. Conditions: after excluding early response genes. The method, then:
RNA from experiments in biological triplicates was isolated using RNeasy Mini Plus Kit (QIAGEN) following the manufacturer's instructions. Strand-specific RNA libraries were generated from 1 μg of RNA using TruSeq stranded total RNA with Ribo-Zero Gold (Illumina). Sequencing was performed using single end reads (50 bp, average 50 million reads per sample) on the HiSeq2500 platform (Illumina) at Fox Chase Cancer Center Genomic Facility. Sequenced reads were aligned to the hg19 genome assembly using TopHat2 (Kim, D., Pertea, G., Trapnell, C., Pimentel, H., Kelley, R., and Salzberg, S. L. (2013). Genome Biol 14, R36). The expression level and fold change of each treatment group was evaluated using EdgeR (Robinson, M. D., McCarthy, D. J., and Smyth, G. K. (2010), Bioinformatics 26, 139-140). Genes that had 0 reads across all samples were excluded. In order to get rid of batch effects, samples were normalized using RUVr method from the RUVseq package (Risso, D., Ngai, J., Speed, T. P., and Dudoit, S. (2014). Normalization of RNA-seq data using factor analysis of control genes or samples. Nat Biotechnol 32, 896-902). RNA data were deposited in the GEO database with the accession number GSE104837.

A further assay concerns ID8. As to the kind of experiment: ID8 ovarian cancer syngeneic immunocompetent mouse model. Format: in vivo. Here is the method: For drug screening and dose response validations, GFP positive cells were detected by Millipore Guava flow cytometer (EMD, Millipore). Cell cycle analysis was performed using BD FACSCalibur™ by propidium iodide staining four days after drug treatment. Sub-G1 population percentage was also included to measure apoptotic cell proportion. Data were analyzed using FlowJo software version 10.2. For the cell differentiation analysis, cells were washed and stained with propidium iodide (PI), CD11 b (BD Biosciences, #562793) and the isotype control IgG (BD Biosciences, #555748). Flow cytometry analysis was performed on a Millipore Guava flow cytometer (EMD, Millipore). For the ID8 in vivo experiments, ascites was drained from 5-10 mice per group and incubated in ACK buffer (Thermo Fisher) to lyse red blood cells for 10 minutes, then washed. Ascites from each mouse was individually lysed and prepared for flow cytometry. Mononuclear cells collected were cultured for 4 hours in RPMI with 5% Fetal Bovine Serum and in the presence of Cell Stimulation Cocktail (plus protein transport inhibitors; eBioscience). Cells were then washed and stained for cell surface markers including Live/Dead (eBioscience #65-0865-18), CD45 (BD Biosciences, #563891), CD3 (BD Biosciences, #560527), MHC II (Biolegend #107619, Isotype Control #400627), CD80 (BD Biosciences, #553769), CD86 (BD Biosciences, #558703) and CD11c (BD Biosciences, #564079). Flow cytometry acquisition was performed on an LSRII cytometer (BD Biosciences) and data were analyzed using FlowJo software version 10.2.
2.5×10^5 ID8-VEGF-Defensin cells were injected i.p. into 7-8-week-old female C57BL/6NHsd (C57Bl/6) mice. Three days after injection, 1 mg/kg SNS-032, 10 mg/kg SNS-032, or 5% DMSO in PBS (vehicle control) was administered i.p. every 3 days for the duration of the experiment. α-PD-1 (200 ug/mouse) or IgG control were given on days 17, 20, 24, and 27 after injection. α-PD-1 (1 mg/mL in saline) was utilized. Mouse IgG isotype control was purchased from Leinco Technologies and diluted in PBS.

For the molecule `NC1CCC(Nc2cc(-c3cccc(NCc4cccc(F)c4)n3)c(Cl)cn2)CC1` (stereo not shown) [iCDK9], the “expression of SYNE1 and MGMT” value in the assay with YB5 cells [1] was “gene reactivation”.
On to `Nc1nc(N[C@H]2CC3CCC2C3)sc1C(=O)c1cccc2nonc12` (stereo partly drawn) [MC180349, (4-amino-2-(((2S)-bicyclo[2.2.1]heptan-2-yl)amino)thiazol-5-yl)(benzo[c][1,2,5]oxadiazol-4-yl)methanone], for which, in the assay with YB5 cells [2], the “relative activity to Depsipeptide @ 500 nM %” value is recorded as 10.98%, the Emax at 1 µM came to 27.5%, the Emax at 5 µM was 91.2% and the Emax at 10 µM was determined as 74.5%. For the same molecule, in the assay with YB5 cells [2], the Emax at 25 µM is 36.6%.
As for `Cc1c[nH]c(-c2cnc(NCCNc3ccc(C#N)cn3)nc2-c2ccc(Cl)cc2Cl)n1` [CHR99021], the GFP reactivation activity result in the assay with YB5 cells [3] is given as “no GFP reactivation activity”.
As to `CN1CC[C@H](c2c(O)cc(O)c3c(=O)cc(-c4ccccc4Cl)oc23)[C@H](O)C1` [flavopiridol], in the assay on YB5 cells [1], the “expression of SYNE1 and MGMT” value is on record as “gene reactivation”.
Take `Nc1nc(N[C@H]2CC3CCC2C3)sc1C(=O)c1cc2c(cc1[N+](=O)[O-])OCCO2` (stereo partly shown) [MC180312]: in the assay with YB5 cells [2], the “relative activity to Depsipeptide @ 50 μM %” value is 6.38%, the Emax at 1 µM stood at 9.73%, the Emax at 5 µM amounted to 35.6% and the Emax at 10 µM is 42.3%. The Emax at 25 µM in the assay with YB5 cells [2] was found to be 9%.
As to `N#Cc1ccccc1C(=O)c1sc(N[C@H]2CC3CCC2C3)nc1N` (stereo partly drawn) [MC180342, 2-(4-amino-2-(((2S)-bicyclo[2.2.1]heptan-2-yl)amino)thiazole-5-carbonyl)benzonitrile], in the assay on YB5 cells [2], the “relative activity to Depsipeptide @ 500 nM %” value was found to be 10.42%, the Emax at 1 µM was 22.7%, the Emax at 5 µM came to 107% and the Emax at 25 µM came to 78.8%.
As to `Nc1nc(N[C@H]2CC3CCC2C3)sc1C(=O)c1ccc2nonc2c1` (stereo partly shown) [MC180345], in the assay on YB5 cells [2], the “relative activity to Depsipeptide @ 500 nM %” value stood at 1.87%, the Emax at 1 µM came to 3.58%, the Emax at 5 µM was 3.61% and the Emax at 10 µM is 3.99%. The Emax at 25 µM in the assay with YB5 cells [2] is 12.6%.
For `Nc1ncn([C@H]2C[C@H](O)[C@@H](CO)O2)c(=O)n1` [DAC, decitabine], in the assay with YB5 cells [4], the “low expressed genes (RPKM<0.31) down” value is 7 and the “low expressed genes (RPKM<0.31) up” value is 1238.
As for `Nc1nc(N[C@H]2CC3CCC2C3)sc1C(=O)c1ccc([N+](=O)[O-])cc1` (stereo partly shown) [MC180340], in the assay on YB5 cells [2], the “relative activity to Depsipeptide @ 500 nM %” value came out at 3.54%, the Emax at 1 µM was determined as 2.83%, the Emax at 5 µM came to 13% and the Emax at 10 µM came out at 11.6%. The Emax at 25 µM in the assay with YB5 cells [2] worked out at 3.41%.
On the same counts, the results for `Nc1nc(N[C@H]2C[C@@H]3CC[C@H]2C3)sc1C(=O)c1cc2c(cc1[N+](=O)[O-])OCO2` [MC180300] are 0.68%, 3.87%, 35.6%, 51.6% and 46.9%.
`O=C(/C=C/N1C[C@H]2C[C@@H]1CN2c1ccccn1)c1ccccc1O` [PFI-3]: the “effect on GFP activation by HH1 or iCDK9” value with YB5 cells [3] (72 hr daily pre-treatment followed by 24 hr co-treatment) is listed as “inhibited GFP activation”.
On to `COc1cc(C(=O)c2sc(N[C@H]3CC4CCC3C4)nc2N)cc(OC)c1OC` (stereo partly drawn) [MC180251, (4-amino-2-(((2S)-bicyclo[2.2.1]heptan-2-yl)amino)thiazol-5-yl)(3,4,5-trimethoxyphenyl)methanone], for which, in the assay on YB5 cells [2], the “relative activity to Depsipeptide @ 50 μM %” value is on record as 0.00%, the Emax at 1 µM was 0%, the Emax at 5 µM turned out to be 0% and the Emax at 10 µM came out at 0%. Moreover, the Emax at 25 µM in the assay on YB5 cells [2] is 0%.
As to `Nc1nc(N[C@H]2CC3CCC2C3)sc1C(=O)c1cccc([N+](=O)[O-])c1` (stereo partly shown) [MC180339], in the assay with YB5 cells [2], the “relative activity to Depsipeptide @ 500 nM %” value was determined as 3.29%, the Emax at 1 µM worked out at 3.05%, the Emax at 5 µM came to 16.9% and the Emax at 10 µM amounted to 29.2%. In the assay with YB5 cells [2], the Emax at 25 µM was 8.71%.
On to `[Cl-].[Li+]` [LiCl], for which the GFP reactivation activity entry with YB5 cells [3] is “no GFP reactivation activity”.
On to `CC(C)(C)c1cnc(CSc2cnc(NC(=O)C3CCNCC3)s2)o1` [SNS-032], for which, in the assay with ID8 (10 mg/kg), the survival result is on record as “extend the survival of the mice significantly” and the tumor burden result is “reduce tumor burden”. Further, the “immune cells (CD45+) and T cells (CD3+) in the tumor microenvironment” value in the assay on ID8 (in vivo treatment, ascites fluid, flow cytometry) is “increased populations”.

For the origin of these results see patent US10941126B2, “Bridged bicycloalkyl-substituted aminothiazoles and their methods of use” (Temple University—Of The Commonwealth System of Higher …, priority 2017, dated 2021).
